Marks after values point to notes of the source that are not given here.
Columns and labels:
[1] = test system: Salmonella typhimurium histidine auxotroph mutants TA97, TA98, TA100 and TA102; experiment: Bacterial reverse mutation test (Ames test); assay type: cell-based; conditions: 5-5000 μg/plate, −S9 and +S9
Experimental: Bacterial reverse mutation test on compound I-20 was performed on Salmonella typhimurium histidine auxotroph mutants TA97, TA98, TA100 and TA102 (purchased from MolTox company) using conventional procedures of Ames test.
Observation period: colony counting was done 48 hours after cultivation at 37° C.
Drug solutions with different concentrations were prepared with double distilled water, and the doses were 5, 50, 500, 1000, 5000 μg/plate.
Direct effect of the test drug in the absence of metabolic activity was determined by standard plate incorporation assay. The composition of the test top layer was: 2.0 ml top layer, 0.1 ml drug solution, 0.1 ml bacteria solution and 0.5 ml phosphate buffer.
Pre-incubation was used in the determination of the drug's mutagenic effect in the presence of metabolic activity. The composition of the test top layer is: 2.0 ml top layer, 0.1 ml drug solution, 0.1 ml bacteria solution and 0.5 ml S9 mix.
The resulting drug solution, bacterial solution and S9 mix were first incubated at 35° C. for 30 min while shaking, and then tested according to standard plate incorporation assay. Each dose was tested in three plates, each mutant was tested in the absence or presence of metabolic activity (−S9 or +S9) and repeated twice, the number of revertant colonies was calculated as x±SD.

Kunming mice [2] = experiment: Hot-plate test in mice; assay type: in vivo; conditions: 1 h post dose
Experimental: Kunming mice, SPF KM mice were purchased from […] SLAC LABORATORY ANIMAL CO. LTD and kept in normal environment.
The compounds were dissolved in water for injection at a concentration of 4 mg/ml, 2 mg/ml and 1 mg/ml and were given subcutaneously to animals.
(§1) Three different doses (10, 20, and 40 mg/kg) were administered to the test groups.
Morphine was used as a positive control and hot plate test was used.
30-40 mice (half male and half female) weighed from 18 to 23 gram were used. First, each mouse was placed on a hot plat at 55° C. to determine basic pain threshold for 2-3 times. Those animals with basic pain threshold of 5-30 s were qualified, unqualified mice were not used. 30 qualified mice were divided into five groups, including negative control group, positive control group, low-dose group, medium-dose group and high-dose group:
Mice in test groups received test sample solution (10 mg/kg, 20 mg/kg, 40 mg/kg) via subcutaneous injection in the neck. Positive control group received subcutaneous injection of morphine (2 mg/kg). One hour later, pain threshold values were determined for mice in each group as post-drug pain threshold. Percentage increase in pain threshold was calculated according to the following equation: […]

Kunming mice [3] = experiment: Acetic acid-induced abdominal writhing test in mice; assay type: in vivo
Experimental: Kunming mice, SPF KM mice purchased from […] SLAC LABORATORY ANIMAL CO. LTD and kept in normal environment.
The compounds were dissolved in water for injection at a concentration of 4 mg/ml, 2 mg/ml and 1 mg/ml and were given intragastrically to animals.
as §1
Aspirin was used as a positive control and acetic acid writhing test was used.
30 mice (half male and half female) weighing 18-23 g were divided into five groups, including negative control group, positive control group, low dose group, medium dose group and high dose group:
Mice in test group received test drug (10 mg/kg, 20 mg/kg, 40 mg/kg) via intragastric administration. Negative control group received physiological saline (20 ml/kg) via oral administration. Positive control group received aspirin (200 mg/kg) via oral administration. One hour later, each group received 0.7% acetic acid 10 ml/kg intraperitoneally. Five minutes later, the number of writhes was counted within the subsequent 15 min period; inhibition percentage of writhing response in each test group was calculated by the following equation: […]

[4] = molecular target: opioid receptor subtype κ (Homo sapiens, UniProt P41145); experiment: Competitive binding to opioid receptor subtype κ, [3H]Diprenorphine
Experimental: (§2) The respective test compounds were added to the sample tube (final concentration of 10^−5M), incubated at 37° C. for 30 min and placed in ice bath to terminate the reaction. The reaction mixture was filtered through GF/C (Whatman) glass fiber filter by vacuum filtration on a Millipore sample collector. The filter was washed three times with 50 mM Tris-HCl (pH7.4), each with 4 ml; dried and transferred into a 0.5 ml Eppendorf tube, in which 0.5 ml lipophilic scintillation fluid was added. Radioactivity was detected by a LS6500 scintillation counter. Each concentration had three duplicate test tubes and each separate test was repeated 3 to 4 times.
(§3) Specific binding CMP value for each sample tube=overall binding CPM value for each sample tube−CPM value of non-specific binding tube.
(§4) [Inhibition percentage of competitive binding between the test compound and different opioid receptor subtypes (%)=(100%−specific binding (CPM value)of sample tube/specific binding(CPM value)of solvent group×100%)]
(§5) Average was taken for each test drug from three duplicate tubes; each test was repeated two or more times.

5-HT2A receptor = molecular target: T1, 5-HT2A receptor (Homo sapiens, UniProt P28223); experiment: In-vitro competitive binding to 5-HT2A receptor, [3H]-Ketanserin, transformed HEK293 cells
T1 construct: expressed in transfected cells; host or cells: HEK293
Experimental: All test samples were dissolved in DMSO at a concentration of 0.01 mol/L, and then diluted with deionized water to 100 umol/L.
HEK293 cells were transformed with plasmid carriers containing the gene coding for 5-HT2A receptor protein by using calcium phosphate transformation. Stable cell strains which could stably express 5-HT2A receptor protein were obtained from the transformed cells by cultivating in a culture media containing G418, selecting monoclones of the cell and performing radioactive ligand binding assay.
Beckman LS 6500 Scintillation Counter.
HEK-293 cells were infected with recombined viruses containing various genes described above. […] Cells were centrifuged at 1000 rpm for 5 min Culture media was discarded, and cell bodies were collected and stored at −20° C. in a freezer. The cell bodies were resuspended with Tris-HCl reaction buffer during assay.
After incubation at 37° C. for 15 min, the reaction mixture was immediately transferred into ice bath to terminate the reaction; the reaction mixture was quickly filtered through GF/C glass cellulose filter on a Millipore cell sample collector, and was then washed with eluting solution (50 mM Tris-HCl, PH 7.7, 3 ml×3) and dried in a microwave for 8-9 min. The filter was transferred into a 0.5 ml centrifuge tube, and 500 μl lipid soluble scintillation fluid was added. The centrifuge tube was allowed to stand in darkness for more than 30 min. Radioactivity was determined by counting Inhibition percentage of each compound on isotope ligand binding was calculated according to the following equation:
inhibition percentage(I %)=cpm of overall binding tube−cpm of compound/cpm of overall binding tube−cpm of nonspecific binding tube×100%.
Each compound was tested in two duplicate test tubes and two separate tests were performed.

[5] = molecular target: opioid receptor subtype μ (Homo sapiens, UniProt P35372); experiment: Competitive binding to opioid receptor subtype μ, [3H]Diprenorphine
Experimental: as §2, §3, §4, §5

[6] = affinity to 5-HT2A receptor, concentration gradient test

Question: What does the source list for `N#Cc1ccc2ccn(CCCCN3CCC(c4noc5cc(F)ccc45)CC3)c2c1` [II-9, 1-(4-(4-(6-fluorobenzo[d]isoxazol-3-yl)piperidin-1-yl)butyl)-1H-indole-6-carbonitrile]?
Answer: Ames test result [1]: negative; Percentage increase in pain threshold (Kunming mice [2]; 10 mg/kg S.c.): 97.98* %; Percentage increase in pain threshold (Kunming mice [2]; 20 mg/kg S.c.): 220.49** %; Percentage increase in pain threshold (Kunming mice [2]; 40 mg/kg S.c.): 229.39** %; Inhibition percentage of writhing response (Kunming mice [3]; 10 mg/kg intragastric administration): 100** %; Inhibition percentage of writhing response (Kunming mice [3]; 20 mg/kg intragastric administration): 99.05* %; Inhibition percentage of writhing response (Kunming mice [3]; 40 mg/kg intragastric administration): 100** %; affinity to opioid receptor subtype κ (in words) [4]: no obvious affinity; inhibition at 10 µM ([4]; tested concentration 10^−5 mol/L, read-out: κ inhibition percentage of competitive binding): 28.5 ± 1.3%; IC50 (5-HT2A receptor; [6]): 2.92 nM; Ki (5-HT2A receptor; [6]): 1.97 nM; inhibitory activity on 5-HT2A (in words) (5-HT2A receptor; compared with Aripiprazole): potent inhibitory activities; inhibition at 10 µM (5-HT2A receptor; read-out: 5-HT2A [3H]-Ketanserin inhibition percentage): 99.3%; affinity to opioid receptor subtype μ (in words) [5]: no obvious affinity; inhibition at 10 µM ([5]; tested concentration 10^−5 mol/L, read-out: μ inhibition percentage of competitive binding): 53.4 ± 0.7%

From patent publication US20110306638A1, “BENZISOXAZOLE PIPERIDINYL DERIVATIVES, PHARMACEUTICAL COMPOSITIONS COMPRISING THE DERIVATIVES AND THEIR USE” (NHWA PHARMA. CORPORATION, priority 2008, published 2011)
